Measured values from the OPERA property sets (Mansouri et al. 2018).
Converted amounts (≈) assume the structure as drawn.

Conditions: not given

| Compound | solubility [mM] |
| --- | --- |
| CNC(=O)O/N=C1\[C@@H](Cl)[C@@H]2C[C@H](C#N)[C@H]1C2 | 8.28 (≈ 2000 µg/mL) |
| Cc1cc(OC(=O)N(C)C)n(-c2ccccc2)n1 | 8.15 (≈ 2000 µg/mL) |
| COC(=O)c1cc(O)c(O)c(O)c1 | 57.6 (≈ 10600 µg/mL) |
| CCC(N)Cc1c[nH]c2ccccc12 (stereo not given) | 2.71 (≈ 510 µg/mL) |
| COc1cc(NS(=O)(=O)c2ccc(N)cc2)nc(C)n1 | 2.86 (≈ 843 µg/mL) |
| O=C1C=CC(=C(c2ccc(O)cc2)c2ccc(O)cc2)C=C1 | 4.13 (≈ 1200 µg/mL) |
| Cn1c(=O)[nH]c2[nH]c(=O)[nH]c2c1=O | 27.5 (≈ 5000 µg/mL) |
| COc1cc(NS(=O)(=O)c2ccc(N)cc2)nc(OC)n1 | 1.11 (≈ 343 µg/mL) |
| CC(=O)N=c1sc(S(N)(=O)=O)nn1C | 14.8 (≈ 3500 µg/mL) |
| CCC[C@H]1CCCCN1 | 141 (≈ 18000 µg/mL) |
| CC(=O)Oc1c(C(C)(C)C)cc([N+](=O)[O-])c(C)c1[N+](=O)[O-] | 0.0338 (≈ 10 µg/mL) |
| c1ccc2c3c(ccc2c1)-c1cccc2cccc-3c12 | 9.91e-06 (≈ 0.0025 µg/mL) |
| CC(C)(C)NC[C@H](O)COc1ccccc1C1CCCC1 | 24 (≈ 7000 µg/mL) |
| Cc1cccc(Cl)c1 | 0.3 (≈ 38 µg/mL) |
| O=C(OCC(O)CO)c1ccccc1Nc1ccnc2cc(Cl)ccc12 (stereo not given) | 107 (≈ 40000 µg/mL) |

Same assay, conditions: 20 °C

| Compound | solubility [mM] |
| --- | --- |
| O=C(O)[C@H]1CCCC[C@@H]1C(=O)O (relative stereo) | 11.6 (≈ 2000 µg/mL) |
| C=CCOC(=O)c1ccccc1C(=O)OCC=C | 0.739 (≈ 182 µg/mL) |
| COCCCNc1nc(NC(C)C)nc(SC)n1 | 1.18 (≈ 320 µg/mL) |
| COC(=O)c1cc(Cl)cc(N)c1Cl | 0.545 (≈ 120 µg/mL) |
| O=C(O)C1(O)c2ccccc2-c2ccc(Cl)cc21 (stereo not given) | 0.076 (≈ 19.8 µg/mL) |
| Clc1cccc(-c2c(Cl)cccc2Cl)c1 | 0.00015 (≈ 0.0386 µg/mL) |
| CNc1ccccc1C(=O)O | 1.32 (≈ 200 µg/mL) |
| Clc1c(Cl)c(Cl)c2c(c1Cl)Oc1c(Cl)c(Cl)c(Cl)c(Cl)c1O2 | 8.7e-10 (≈ 4e-07 µg/mL) |
| CC(C)CNC(=O)N1CCNC1=O | 7.02 (≈ 1300 µg/mL) |
| COc1ccc2c3c1O[C@H]1[C@@H](O)C=C[C@H]4[C@@H](C2)N(C)CC[C@@]341 | 30.1 (≈ 9000 µg/mL) |
| COC(=O)C(Cl)Cc1ccc(Cl)cc1 (stereo not given) | 0.172 (≈ 40 µg/mL) |
| FC(F)(F)c1cccc(C(c2ccccc2)(c2ccccc2)n2cncn2)c1 | 3.95e-06 (≈ 0.0015 µg/mL) |
| Clc1ccc(-c2cc(Cl)c(Cl)cc2Cl)cc1Cl | 4.1e-05 (≈ 0.0134 µg/mL) |
| Clc1cccc(-c2ccccc2Cl)c1 | 0.0026 (≈ 0.58 µg/mL) |
| Cc1nnc(-c2ccccc2)c(=O)n1N | 8.9 (≈ 1800 µg/mL) |
| CSc1nc(N=[N+]=[N-])nc(NC(C)C)n1 | 0.244 (≈ 55 µg/mL) |

| Compound | solubility [mM] |
| --- | --- |
| CCCCNC(=O)n1c(NC(=O)OC)nc2ccccc21 | 0.0131 (≈ 3.8 µg/mL) |
| CC(=O)CC1CCCCN1 (stereo not given) | 354 (≈ 50000 µg/mL) |
| O=c1nc[nH]c2nccnc12 | 33.8 (≈ 5000 µg/mL) |
| CCOP(=S)(NC(C)C)Oc1ccccc1C(=O)OC(C)C (stereo not given) | 0.064 (≈ 22.1 µg/mL) |
| O=Cc1ccc2c(c1)OCO2 | 23.3 (≈ 3500 µg/mL) |
| CCC(C)N (stereo not given) | 1530 (≈ 112000 µg/mL) |
| O=C(O)c1nc[nH]c1C(=O)O | 3.2 (≈ 500 µg/mL) |
| Nc1ccccc1C(=O)O | 25.5 (≈ 3500 µg/mL) |
| O=C1C=C2CC3(O)COc4c(ccc(O)c4O)C3=C2C=C1O (stereo not given) | 2 (≈ 600 µg/mL) |
| O=C(O)CN(CP(=O)(O)O)CP(=O)(O)O | 943 (≈ 248000 µg/mL) |
| O=C(Nc1ccccc1)c1ccccc1I | 0.0619 (≈ 20 µg/mL) |
| C[C@H](CCC(=O)NCC(=O)O)[C@H]1CC[C@H]2[C@@H]3[C@H](O)C[C@@H]4C[C@H](O)CC[C@]4(C)[C@H]3C[C@H](O)[C@]12C | 0.00709 (≈ 3.3 µg/mL) |
| COP(=S)(OC)Oc1ccc([N+](=O)[O-])c(Cl)c1 | 0.134 (≈ 40 µg/mL) |
| OCCOc1ccccc1 | 193 (≈ 26700 µg/mL) |
| C[C@@]12C(=O)OC(=O)[C@]1(C)C1CCC2O1 | 0.153 (≈ 30 µg/mL) |

Same assay, conditions: 22 °C

| Compound | solubility [mM] |
| --- | --- |
| Cc1ccccc1Oc1cccnn1 | 10.7 (≈ 2000 µg/mL) |
| Cc1cc(S(=O)(=O)c2ccccc2)ccc1NS(=O)(=O)C(F)(F)F | 0.158 (≈ 60 µg/mL) |
| CCCC(C)C(=O)Nc1ccc(C)c(Cl)c1 (stereo not given) | 0.0355 (≈ 8.5 µg/mL) |

Same assay, conditions: 23 °C

| Compound | solubility [mM] |
| --- | --- |
| C[C@]12CC[C@@H](O)C[C@@H]1CC[C@@H]1[C@@H]2[C@H](O)C[C@]2(C)C(=O)CC[C@@H]12 | 0.255 (≈ 78.2 µg/mL) |
| Clc1ccccc1-c1cc(Cl)c(Cl)c(Cl)c1Cl | 5.17e-05 (≈ 0.0169 µg/mL) |

Same assay, conditions: 24 °C

| Compound | solubility [mM] |
| --- | --- |
| CC=CCCCC | 0.153 (≈ 15 µg/mL) |
| CC(C)Oc1cc(-n2nc(C(C)(C)C)oc2=O)c(Cl)cc1Cl | 0.00203 (≈ 0.7 µg/mL) |
| O=C1CN(N=Cc2ccc([N+](=O)[O-])o2)C(=O)N1 | 0.334 (≈ 79.5 µg/mL) |
| O=C(O)c1c2ccccc2cc2ccccc12 | 0.382 (≈ 85 µg/mL) |
| CN(C)CCCN1c2ccccc2CCc2ccccc21 | 0.065 (≈ 18.2 µg/mL) |

Same assay, conditions: 25 °C

| Compound | solubility [mM] |
| --- | --- |
| CCCCCO | 250 (≈ 22000 µg/mL) |
| O=C1CSC(=S)N1 | 16.9 (≈ 2250 µg/mL) |
| NS(=O)(=O)c1cc2c(cc1C(F)(F)F)NC(Cc1ccccc1)NS2(=O)=O (stereo not given) | 0.256 (≈ 108 µg/mL) |
| COc1c2occc2c(OC)c2c(=O)cc(C)oc12 | 4 (≈ 1040 µg/mL) |
| Cc1cc(=O)[nH]o1 | 858 (≈ 85000 µg/mL) |
| Cc1cccc2c1ccc1ccccc12 | 0.0014 (≈ 0.269 µg/mL) |
| Fc1cccc(CCl)c1 | 2.86 (≈ 414 µg/mL) |
| Cc1cc2ccccc2cc1C | 0.0127 (≈ 1.99 µg/mL) |
| CC1(C)C(=O)[C@@]2(C)CC[C@@H]1C2 | 14.1 (≈ 2150 µg/mL) |
| CC(C)(C)c1ccccc1 | 0.22 (≈ 29.5 µg/mL) |
| CC(=O)OCC(=O)[C@@]1(O)CC[C@H]2[C@@H]3CCC4=CC(=O)CC[C@]4(C)[C@H]3C(=O)C[C@@]21C | 0.0497 (≈ 20 µg/mL) |
| C=CCN(CC=C)C(=O)CCl | 113 (≈ 19700 µg/mL) |
| Clc1ccc(Cl)c(-c2cc(Cl)ccc2Cl)c1 | 5.24e-05 (≈ 0.0153 µg/mL) |
| CC(=O)OCC(=O)[C@@]1(O)CCC2C3CCC4=CC(=O)CC[C@]4(C)C3[C@@H](O)C[C@@]21C (stereo not given in full) | 0.0349 (≈ 14.1 µg/mL) |
| C=Cc1ccccc1 | 2.98 (≈ 310 µg/mL) |
| CCCCCCC | 0.0339 (≈ 3.4 µg/mL) |
| CC(C)[C@@H](N)C(=O)O (racemic) | 563 (≈ 66000 µg/mL) |
| Clc1cccc(-c2cccc(Cl)c2Cl)c1Cl | 5.34e-05 (≈ 0.0156 µg/mL) |
| Clc1cccc(-c2cc(Cl)ccc2Cl)c1 | 0.000982 (≈ 0.253 µg/mL) |
